The results in this text go back to patent publication US6608086B2, “Dihydropyridines and new uses thereof” (Synaptic Pharmaceutical Corporation, priority 1993, dated 2003).

Where a name gives a salt, the structure may show the parent alone. Read-outs that look alike come from different tables or passages of the source.

Test [1] addresses T1, α1C Human Adrenergic Receptor (Homo sapiens, UniProt P35348).
T1 construct: The entire coding region of α1C (1401 bp); expressed in transfected cells
T1 sequence (P35348 1-466): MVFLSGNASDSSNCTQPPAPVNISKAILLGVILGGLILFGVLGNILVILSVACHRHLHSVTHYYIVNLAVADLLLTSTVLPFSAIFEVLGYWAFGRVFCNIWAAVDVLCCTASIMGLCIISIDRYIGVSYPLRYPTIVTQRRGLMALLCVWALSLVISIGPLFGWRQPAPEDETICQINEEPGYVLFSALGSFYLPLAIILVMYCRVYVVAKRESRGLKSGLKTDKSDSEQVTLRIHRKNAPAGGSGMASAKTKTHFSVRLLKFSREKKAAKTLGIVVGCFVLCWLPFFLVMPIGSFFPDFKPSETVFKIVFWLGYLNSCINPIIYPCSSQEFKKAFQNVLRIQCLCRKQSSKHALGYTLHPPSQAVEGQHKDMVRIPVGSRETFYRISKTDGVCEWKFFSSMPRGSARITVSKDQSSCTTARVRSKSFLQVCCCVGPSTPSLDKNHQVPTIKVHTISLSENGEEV
The experiment in a line: Radioligand binding, [3H]prazosin, cloned human α1C adrenergic receptor. Put shortly: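 LM(tk−) membranes (stable human α1C); [3H]prazosin 0.5 nM; 37° C., 20 min; Tris-HCl 50 mM/MgCl2 1 mM/ascorbate 0.1%, pH 7.5; NSB 10 μM phentolamine; GF/B filtration.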

A further test has as its target T2, α2A receptor (Homo sapiens, UniProt P08913).
T2 construct: host or cells: LM(tk-) cells, line L-α2A
T2 sequence (P08913 1-465): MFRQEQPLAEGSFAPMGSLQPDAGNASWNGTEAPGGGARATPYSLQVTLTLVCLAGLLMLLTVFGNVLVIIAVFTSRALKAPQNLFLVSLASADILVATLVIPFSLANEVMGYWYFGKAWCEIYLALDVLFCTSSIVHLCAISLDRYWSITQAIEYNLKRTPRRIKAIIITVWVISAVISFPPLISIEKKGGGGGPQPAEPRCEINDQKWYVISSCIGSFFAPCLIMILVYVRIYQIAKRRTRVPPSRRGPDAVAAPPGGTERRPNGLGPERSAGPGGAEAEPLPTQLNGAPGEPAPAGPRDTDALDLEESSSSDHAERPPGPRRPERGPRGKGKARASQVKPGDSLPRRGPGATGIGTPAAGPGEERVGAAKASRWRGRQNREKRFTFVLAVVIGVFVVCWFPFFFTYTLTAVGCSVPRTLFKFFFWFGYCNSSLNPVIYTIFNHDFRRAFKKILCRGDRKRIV
The experiment in a line: Competition binding, [3H]rauwolscine, human α2A receptor. The procedure, abridged:
(§1)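 Equilibrium displacement of [3H]rauwolscine (0.5 nM) measured on membranes from stably transfected LM(tk−) lines, one per α2 subtype, in glycylglycine buffer at pH 7.6. Nonspecific binding set by 10 μM phentolamine; separation by filtration.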

Another test deals with T3, α2B receptor (Homo sapiens, UniProt P18089).
T3 construct: host or cells: LM(tk-) cells, line L-NGC-α2B
T3 sequence (P18089 1-450): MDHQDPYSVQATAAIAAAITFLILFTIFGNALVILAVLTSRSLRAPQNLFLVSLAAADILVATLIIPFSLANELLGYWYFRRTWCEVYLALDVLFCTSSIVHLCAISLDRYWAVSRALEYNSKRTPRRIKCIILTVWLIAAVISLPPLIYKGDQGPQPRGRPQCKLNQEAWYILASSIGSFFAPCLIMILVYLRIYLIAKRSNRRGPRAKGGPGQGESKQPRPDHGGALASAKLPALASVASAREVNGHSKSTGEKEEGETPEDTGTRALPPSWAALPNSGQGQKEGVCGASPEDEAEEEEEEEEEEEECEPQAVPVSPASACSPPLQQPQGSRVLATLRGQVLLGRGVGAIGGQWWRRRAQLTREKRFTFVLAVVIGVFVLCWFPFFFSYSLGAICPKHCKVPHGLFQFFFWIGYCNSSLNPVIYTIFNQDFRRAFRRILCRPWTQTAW
The experiment in a line: Competition binding, [3H]rauwolscine, human α2B receptor. Put shortly: as §1

Where [2] appears, read: pKi alpha-1 1c, cloned human α1C receptor, LM(tk−) cell membranes.
The mark [3] stands for this setting: [3H]rauwolscine, human α2A receptor, LM(tk−) cells, read-out: pKi alpha-2 2a (converted).
Setting [4] is: pKi alpha-2 2b, [3H]rauwolscine, human α2B receptor, LM(tk−) cells.
Setting [5] is: cloned human receptor in LM(tk-) cell membranes, SEM and n in lines below, read-out: pKi alpha-1 1c (converted).
The mark [6] stands for this setting: pKi alpha-1 1c, cloned human receptor in LM(tk-) cell membranes, SEM and n in lines below.
Where [7] appears, read: [3H]rauwolscine, LM(tk-) cell line L-α2A, SEM and n in lines below, read-out: pKi alpha-2 2a (converted).
Setting [8] is: pKi alpha-2 2b, [3H]rauwolscine, LM(tk-) cell line L-NGC-α2B, SEM and n in lines below.

`COc1ccc(C2(c3ccccc3)CCN(CCCNC(=O)C3=C(C)NC(C)=C(C(N)=O)C3c3ccc([N+](=O)[O-])cc3)CC2)cc1` (stereo not drawn) [Example 98, 5-Carboxamido-1,4-dihydro-3-{N-[3-(4-(4-methoxyphenyl)-4-phenylpiperidin-1-yl)propyl]}carboxamido-2,6-dimethyl-4-(4-nitrophenyl)pyridine hydrochloride]: the Ki was 4.79 nM in test [1] (setting [2]), 355 nM at α2A receptor (setting [3]) and 589 nM at α2B receptor (setting [4]).
Turning to `COC(=O)C1=C(C)NC(C)=C(C(=O)NCCCN2CCC(c3ccccc3)(c3ccccc3)CC2)C1c1cc(OC)c(OC)c(OC)c1` (stereo not drawn) [Example 27], the Ki is 3.63 nM in test [1] (setting [5]), 1950 nM on α2A receptor and 1050 nM at α2B receptor (pKi alpha-2 2b).
On to `COC(=O)C1=C(C)NC(C)=C(C(=O)NCCCN2CCC(c3ccccc3)(c3ccccc3)CC2)C1Cc1ccccc1` (stereo not drawn) [Example 8, 4-Benzyl-1,4-dihydro-3-methoxycarbonyl-2,6-dimethyl-5-(N-(3-(4,4-diphenylpiperidin-1-yl)propyl)carboxamido)pyridine], for which the Ki in test [1] (setting [6]) is 75.9 nM; on α2A receptor (setting [7]), 832 nM; on α2B receptor (setting [8]), 1860 nM.
For `CC1=C(C(N)=O)C(c2ccc([N+](=O)[O-])cc2)C(C(=O)NCCN2CCC(c3ccccc3)(c3ccccc3)CC2)=C(C)N1` (stereo not drawn) [Example 54, 5-Carboxamide-1,4-dihydro-2,6-dimethyl-4-(4-nitrophenyl)-3-{N-[2-(4,4-diphenylpiperidin-1-yl)ethyl]}carboxamidopyridine hydrochloride hydrate], in that order: 12.3 nM, 468 nM and 302 nM.
For `CCC1=C(C(N)=O)C(c2ccc([N+](=O)[O-])cc2)C(C(=O)NCCCN2CCC(C#N)(c3ccccc3)CC2)=C(CC)N1` (single isomer, unassigned; (-)) [(−)-102], the figures for the Ki (in test [1] (setting [2]); at α2A receptor (setting [3]); on α2B receptor (setting [4])) were 112 nM, 1910 nM and 589 nM, respectively.
For the compound `COC(=O)C1=C(C)NC(C)=C(C(=O)NCCCN2CCC(c3ccccc3)(c3ccccc3)CC2)C1c1ccc2ccccc2c1` (stereo not drawn) [Example 22], the Ki was 36.3 nM in test [1] (setting [5]), 1580 nM on α2A receptor and 912 nM at α2B receptor (pKi alpha-2 2b).
`CCC1=C(C(N)=O)C(c2ccc([N+](=O)[O-])cc2)C(C(=O)NCCCN2CCC(c3ccccc3)(c3ccccc3)CC2)=C(C)N1` (stereo not drawn) [Example 41, 3-Carboxamido-2-ethyl-1,4-dihydro-6-methyl-4-(4-nitrophenyl)-3-{N-[3-(4,4-diphenylpiperidin-1-yl)propyl]}carboxamidopyridine]: the figures for the Ki (in test [1] (setting [6]); on α2A receptor (setting [7]); on α2B receptor (setting [8])) were 1.82 nM, 427 nM and 603 nM, respectively.
The like results for `CC1=C(C(=O)NCCCN2CCC(c3ccccc3)(c3ccccc3)CC2)C(c2ccc([N+](=O)[O-])cc2)C2=C(CCCC2=O)N1` (stereo not drawn) [Example 40, 1,4,5,6,7,8-Hexahydro-2-methyl-4-(4-nitrophenyl)-5-oxo-3-{N-[3-(4,4-diphenylpiperidin-1-yl)propyl]}carboxamidoquinoline] were, in that order, 13.8 nM, 1860 nM and 1780 nM.
On to `CCNC(=O)C1=C(COCCN=[N+]=[N-])NC(CC)=C(C(=O)NCCCN2CCC(c3ccccc3)(c3ccccc3)CC2)C1c1ccc([N+](=O)[O-])cc1` (stereo not drawn) [Example 147, 2-((2-Azidoethyl)oxy)methyl-6-ethyl-3-(N-ethyl)carboxamido-1,4-dihydro-4-(4-nitro)phenyl-5-(N-(3-(4,4-diphenylpiperidin-1-yl-)propyl))carboxamidopyridine], for which the Ki in test [1] (setting [2]) is 11 nM; on α2A receptor (setting [3]), 871 nM; on α2B receptor (setting [4]), 1100 nM.
As to `CC(C)C1=C(C(N)=O)C(c2ccc([N+](=O)[O-])cc2)C(C(=O)NCCCN2CCC(c3ccccc3)(c3ccccc3)CC2)=C(C(C)C)N1` (stereo not drawn) [Example 127], the Ki in test [1] (setting [2]) was 55 nM. On α2A receptor ([3H]rauwolscine, human α2A receptor, LM(tk−) cells), the “pKi alpha-2 2a” value was 6.17. For the same compound, the “pKi alpha-2 2b” value on α2B receptor ([3H]rauwolscine, human α2B receptor, LM(tk−) cells) was 6.42.
Take `COC(=O)C1=C(C)NC(C)=C(C(=O)NCCCN2CCC(c3ccccc3)(c3ccccc3)CC2)C1c1ccoc1` (stereo not drawn) [Example 23, 4-(3-Furyl)-1,4-dihydro-3-methoxycarbonyl-2,6-dimethyl-5-(N-(3-(4,4-diphenylpiperidin-1-yl)propyl)carboxamide)pyridine]: the Ki in test [1] (setting [6]) was 14.5 nM; at α2A receptor (setting [7]), 955 nM; at α2B receptor (setting [8]), 562 nM.
Turning to `CC1=C(C#N)C(c2ccc([N+](=O)[O-])cc2)C(C(=O)NCCCN2CCC(c3ccccc3)(c3ccccc3)CC2)=C(C)N1` (stereo not drawn) [Example 37], the Ki in test [1] (setting [5]) was 22.9 nM; on α2A receptor it was 708 nM; at α2B receptor (pKi alpha-2 2b) it was 1070 nM.
As to `CCC1=C(C(=O)NCCCN2CCC(c3ccccc3)(c3ccccc3)CC2)C(c2cccc(OC)c2)C(C(N)=O)=C(C)N1` (stereo not drawn) [Example 113, 5-Carboxamide-2-ethyl-1,4-dihydro-4-(3-methoxyphenyl)-6-methyl-3-(N-(3-(4,4-diphenylpiperidin-1-yl)propyl)carboxamido)-pyridine], the values for the Ki (in test [1] (setting [2]); on α2A receptor (setting [3]); on α2B receptor (setting [4])) were 17.8 nM, 759 nM and 166 nM, respectively.
For `CC1=C(C(N)=O)C(c2ccc(S(C)(=O)=O)cc2)C(C(=O)NCCCN2CCC(c3ccccc3)(c3ccccc3)CC2)=C(C)N1` (stereo not drawn) [Example 115, 5-Carboxamido-1,4-4-dihydro-4-(4-methanesufonylphenyl)-2,6-dimethyl-3-(N-(3-(4,4-diphenylpiperidin-1-yl)propyl)carboxamido)-pyridine], in that order: 58.9 nM, 3980 nM and 776 nM.
As for `COC(=O)C1=C(C)NC(C)=C(C(=O)NCCCN2CCC(c3ccccc3)(c3ccccc3)CC2)C1C1CCCCC1` (stereo not drawn) [Example 6], the Ki was 148 nM in test [1] (setting [5]), 832 nM at α2A receptor and 447 nM at α2B receptor (pKi alpha-2 2b).
As to `COC(=O)C1=C(C)NC(C)=C(C(=O)NCCCN2CCC(c3ccccc3)(c3ccccc3)CC2)C1c1ccc(-c2ccccc2)cc1` (stereo not drawn) [Example 7], the Ki is 617 nM in test [1] (setting [5]), 3800 nM at α2A receptor and 1620 nM at α2B receptor (pKi alpha-2 2b).
In the case of `CC1=C(C(N)=O)C(c2cccc([N+](=O)[O-])c2)C(C(=O)NCCCN2CCC(c3ccccc3)(c3ccccc3)CC2)=C(C)N1` (stereo not drawn) [Example 61, 5-Carboxamido-1,4-dihydro-2,6-dimethyl-4-(3-nitrophenyl)-3-{N-[3-(4,4-diphenylpiperidin-1-yl)propyl]}carboxamidopyridine], the Ki in test [1] (setting [5]) was 3.8 nM; at α2A receptor (setting [7]), 759 nM; at α2B receptor ([3H]rauwolscine, LM(tk-) cell line L-NGC-α2B, SEM and n in lines below, read-out: pKi alpha-2 2b (converted)), 603 nM.
`CCC1=C(C(=O)NCCCN2CCC(c3ccccc3)(c3ccccc3)CC2)C(c2ccc([N+](=O)[O-])cc2)C(C(=O)OC)=C(C)N1` (stereo not drawn) [Example 73, 2-Ethyl-1,4-dihydro-5-methoxycarbonyl-6-methyl-4-(4-nitro) phenyl-3-(N-(3-(4,4-diphenylpiperidin-1-yl)propyl))carboxamidopyridine]: the results for the Ki (in test [1] (setting [5]); at α2A receptor; on α2B receptor (pKi alpha-2 2b)) were 0.661 nM, 794 nM and 676 nM, respectively.
